Experimental data taken from ChEMBL document CHEMBL1255206, “Design and synthesis of a new class of malonyl-CoA decarboxylase inhibitors with anti-obesity and anti-diabetic activities” (Bioorg Med Chem Lett, 2010).

Assays:
[1] = target: T1, Malonyl-CoA decarboxylase, mitochondrial (Mus musculus, UniProt Q99J39); test: Inhibition of MCD in mouse hepatocytes by whole cell assay; assay type: cell-based, Hepatocyte
T1 sequence (Q99J39 whole entry): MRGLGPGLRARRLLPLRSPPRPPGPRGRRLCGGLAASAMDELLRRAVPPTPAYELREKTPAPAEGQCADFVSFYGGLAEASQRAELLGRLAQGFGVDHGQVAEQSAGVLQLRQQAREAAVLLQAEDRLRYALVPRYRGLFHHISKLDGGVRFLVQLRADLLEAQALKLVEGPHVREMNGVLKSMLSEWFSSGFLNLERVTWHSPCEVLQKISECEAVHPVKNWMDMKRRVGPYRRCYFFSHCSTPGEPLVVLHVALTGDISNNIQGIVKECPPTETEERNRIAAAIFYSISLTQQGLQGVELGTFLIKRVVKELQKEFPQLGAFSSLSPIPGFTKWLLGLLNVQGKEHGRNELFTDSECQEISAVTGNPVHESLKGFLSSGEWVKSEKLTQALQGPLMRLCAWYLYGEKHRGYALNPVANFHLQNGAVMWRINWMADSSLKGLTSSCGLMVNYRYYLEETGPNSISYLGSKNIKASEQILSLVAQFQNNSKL

[2] = target: T2, Malonyl-CoA decarboxylase, mitochondrial (Homo sapiens, UniProt O95822); test: Inhibition of human MCD
T2 sequence (O95822 whole entry): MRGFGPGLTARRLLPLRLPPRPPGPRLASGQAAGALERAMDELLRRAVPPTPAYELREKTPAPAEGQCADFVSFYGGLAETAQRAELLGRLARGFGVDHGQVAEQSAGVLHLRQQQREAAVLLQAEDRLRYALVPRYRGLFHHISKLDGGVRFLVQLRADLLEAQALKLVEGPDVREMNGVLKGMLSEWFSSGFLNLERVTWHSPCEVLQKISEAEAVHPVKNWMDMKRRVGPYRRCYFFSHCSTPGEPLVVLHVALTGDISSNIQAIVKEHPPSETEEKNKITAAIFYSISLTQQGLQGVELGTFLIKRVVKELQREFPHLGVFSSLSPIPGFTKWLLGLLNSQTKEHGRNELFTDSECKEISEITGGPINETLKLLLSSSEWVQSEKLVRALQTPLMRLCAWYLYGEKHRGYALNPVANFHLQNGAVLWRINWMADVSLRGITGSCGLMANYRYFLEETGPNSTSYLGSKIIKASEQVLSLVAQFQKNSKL

Mus musculus [3] = test: Antidiabetic activity in C57B6N mouse assessed as blood glucose correction at 30 mg/kg, po; assay type: functional
Mus musculus [4] = test: Antidiabetic activity in C57B6N mouse assessed as blood glucose correction at 3 mg/kg, po; assay type: functional
Mus musculus [5] = test: Antidiabetic activity in C57B6N mouse assessed as blood glucose correction at 10 mg/kg, po; assay type: functional
Mus musculus [6] = test: Antidiabetic activity in C57B6N mouse assessed as decrease in beta-hydroxybutyrate at 30 mg/kg, po; assay type: functional; set-up: scale not given: the % may be the effect or the level left
Mus musculus [7] = test: Antidiabetic activity in C57B6N mouse assessed as decrease in beta-hydroxybutyrate at 3 mg/kg, po; assay type: functional; set-up: scale not given: the % may be the effect or the level left
Mus musculus [8] = test: Antidiabetic activity in C57B6N mouse assessed as decrease in beta-hydroxybutyrate at 10 mg/kg, po; assay type: functional; set-up: scale not given: the % may be the effect or the level left
Mus musculus [9] = test: Antiobesity activity in C57B6N mouse assessed as change in body weight at 30 mg/kg, po; assay type: functional
Mus musculus [10] = test: Antiobesity activity in C57B6N mouse assessed as change in body weight at 100 mg/kg, po; assay type: functional
Mus musculus [11] = test: Antiobesity activity in C57B6N mouse assessed as change in chronic food intake at 30 mg/kg, po; assay type: functional
Mus musculus [12] = test: Antiobesity activity in C57B6N mouse assessed as change in chronic food intake at 100 mg/kg, po; assay type: functional
Mus musculus [13] = test: Antiobesity activity in C57B6N mouse assessed as change in hyphalamic malonyl-coA level at 30 mg/kg, po; assay type: functional
Mus musculus [14] = test: Antiobesity activity in C57B6N mouse assessed as change in hyphalamic malonyl-coA level at 100 mg/kg, po; assay type: functional

SMILES: NC(=O)C1(c2cccc(C(=O)O)c2)CCN(c2ncc(C(O)(C(F)(F)F)C(F)(F)F)s2)CC1
- EC50 [1]: 150 nM

SMILES: Cc1cc(C(O)(C(F)(F)F)C(F)(F)F)ccc1C(Cc1cc[n+]([O-])cc1)c1ccc(OC(F)F)c(OC(F)F)c1 (configuration not stated)
- IC50 [2]: 13.3 nM

SMILES: CS(=O)(=O)NC(=O)C1(c2ccccc2)CCN(c2ncc(C(O)(C(F)(F)F)C(F)(F)F)s2)CC1
- EC50 [1]: 500 nM
- Activity (Mus musculus [3]): 48%
- Activity (Mus musculus [4]): 28%
- Activity (Mus musculus [5]): 53%
- Activity (Mus musculus [6]): 60%
- Activity (Mus musculus [7]): -12%
- Activity (Mus musculus [8]): 53%

SMILES: NC(=O)C1(c2ccccc2)CCN(c2ncc(C(O)(C(F)(F)F)C(F)(F)F)s2)CC1
- EC50 [1]: 1100 nM
- Activity (Mus musculus [9]): -5.5%
- Activity (Mus musculus [10]): 14.3%
- Activity (Mus musculus [11]): -2.4%
- Activity (Mus musculus [12]): -5.7%
- Activity (Mus musculus [13]): 29%
- Activity (Mus musculus [14]): 70%
- Activity (Mus musculus [3]): 41%
- Activity (Mus musculus [6]): 60%

SMILES: OC(c1cnc(N2CCN(c3ccc(F)c(F)c3)CC2)s1)(C(F)(F)F)C(F)(F)F
- EC50 [1]: > 20000 nM

SMILES: OC(c1cnc(C2CCN(c3ccc(F)cc3)CC2)s1)(C(F)(F)F)C(F)(F)F
- EC50 [1]: > 20000 nM

SMILES: O=C(O)c1cccc(C2CCN(c3ncc(C(O)(C(F)(F)F)C(F)(F)F)s3)CC2)c1
- EC50 [1]: 230 nM

SMILES: NC(=O)c1cccc(N2CCN(c3ncc(C(O)(C(F)(F)F)C(F)(F)F)s3)CC2)c1
- EC50 [1]: 1400 nM
- Activity (Mus musculus [9]): -3.3%
- Activity (Mus musculus [10]): -2.2%
- Activity (Mus musculus [11]): 0.8%
- Activity (Mus musculus [12]): 0.8%
- Activity (Mus musculus [13]): 50%
- Activity (Mus musculus [14]): 36%
- Activity (Mus musculus [3]): 32%
- Activity (Mus musculus [6]): 78%

SMILES: NC(=O)c1cccc(N2CCC(c3ncc(C(O)(C(F)(F)F)C(F)(F)F)s3)CC2)c1
- EC50 [1]: 2000 nM

SMILES: CNC(=O)c1cccc(N2CCN(c3ncc(C(O)(C(F)(F)F)C(F)(F)F)s3)CC2)c1
- EC50 [1]: 630 nM
- Activity (Mus musculus [9]): -2.1%
- Activity (Mus musculus [10]): 20%
- Activity (Mus musculus [11]): -1.3%
- Activity (Mus musculus [12]): -12.4%
- Activity (Mus musculus [13]): 65%
- Activity (Mus musculus [14]): 186%
- Activity (Mus musculus [3]): 30%
- Activity (Mus musculus [6]): 65%

SMILES: CNC(=O)C1(c2ccccc2)CCN(c2ncc(C(O)(C(F)(F)F)C(F)(F)F)s2)CC1
- EC50 [1]: 640 nM

SMILES: NC(=O)c1cccc(C2CCN(c3ncc(C(O)(C(F)(F)F)C(F)(F)F)s3)CC2)c1
- EC50 [1]: 950 nM
